# From patent US20050100534A1 (priority 2000, published 2005)
# Experiments:
# Type in all cases: physicochemical
# [1] = Solubility in water
# [2] = Solubility in methanol
# [3] = pKa
# [4] = Storage temperature (thermal stability)
# [5] = pH stability; details: for pH stability: pH range in which stable
Solubility in water [1],Solubility in methanol [2],pKa [3],Storage temperature [4],pH stability [5],pH stability: alkaline hydrolysis above pH ([5]; pH above which alkaline hydrolysis occurs),Compound
Very good; 60-70% (w/v),10%,~4.6,up to 95 °C,2-12,–,O=C(O)[C@H](CO)O[C@@H]1O[C@H](CO)[C@@H](O)[C@H](O)[C@@H]1O
–,–,–,–,Alkaline hydrolysis;,>pH 8-9,"NC(=O)[C@H](CO)O[C@@H]1O[C@H](CO)[C@@H](O)[C@H](O)[C@@H]1O [Firoin-A, β-mannosylglyceramide]"
